Measurements from publication PMC11571215, “Optimization of Antiproliferative Properties of Triimine Copper(II) Complexes” (Journal of Medicinal Chemistry, 2024).
Read-outs that look alike come from different tables or passages of the source.

Experiments:
[1] = system: HCT116-DoxR cells (doxorubicin resistant colorectal carcinoma); assay: MTS cell viability assay, HCT116-DoxR 2D; assay type: cell-based, human; conditions: for IC50: 48 h of exposure, MTS, relative IC50, mean + SEM, read-out: IC50 HCT116-DoxR (2D); for SI HCT116-DoxR: ratio IC50 fibroblasts / IC50 HCT116-DoxR
Experimental: The antiproliferative effect of the Cu(II) complexes in tumor and healthy cell lines was assessed through the MTS assay, a colorimetric method that is widely used to evaluate cellular viability, specifically mitochondrial viability.[53],[54] Cellular viability was determined after 48 h exposure to a concentration range (0.1–50 μM) of Cu(II) complexes in three tumor cell lines. […] Additionally, the viability of healthy primary dermal fibroblasts was performed as a comparison of the complexes’ antiproliferative effects in normal cells.
Cellular viability assays were performed using HCT116, HCT116-DoxR, and A2780 cancer cell lines as well as normal human primary fibroblasts. Cells were seeded at a density of 0.75 × 10^5 cells/mL in 96-well plates and incubated at 37 °C with 5% (v/v) CO2 for 24 h. After this incubation period, the copper complexes were accurately weighed and immediately dissolved in 100% (v/v) dimethyl sulfoxide (DMSO). Subsequently, the complexes were diluted to the final concentration using a cell culture medium. The culture medium in each well was replaced with fresh medium containing varying concentrations of the complexes (ranging from 0.01 to 50 μM). Negative controls contained culture medium with 0.1% (v/v) DMSO, and positive controls contained 0.4 μM Dox.
After an additional 48 h of incubation under the same conditions, cellular viability was assessed using the CellTiter 96 Aqueous One Solution Cell Proliferation Assay kit (Promega, Madison, USA). Metabolically active cells contain mitochondrial dehydrogenases that can reduce 3-(4,5-dimethylthiazol-2-yl)-5-(3-carboxymethoxyphenyl)-2-(4-sulfophenyl)-2H-tetrazolium, the inner salt (MTS) to formazan. The absorbance of formazan, measured at 490 nm in a microplate reader (Tecan Infinite M200, Tecan, Männedorf, Switzerland), is directly proportional to the number of viable cells.[104]
The cell viability versus concentration graphics were analyzed using Prism 8 software (GraphPad) to determine the half-maximal inhibitory concentration (IC50) of each complex for the respective cell line. Additionally, the selective index (SI) for each complex was calculated by dividing the IC50 of human fibroblasts by the IC50 values of the tested cancer cell lines.

[2] = system: primary dermal fibroblasts; assay: Cell migration (wound healing) assay; assay type: cell-based, human; conditions: 24 h; complexes at IC50, Dox 6 μM; DMSO control 100%
Experimental: Cellular migration is the individual movement of cells from one location to another.[96] This migratory process is an integral part of both the metastatic process and wound healing.[54] […] The in vitro wound healing assay is highly used to understand how the complexes affect cellular migration by measuring the closure of a gap previously created in the cell culture plate. […] Additionally, cells were subjected to the vehicle control of 0.1% DMSO and the positive control of Dox (6 μM), and the percentage of remission/regeneration was calculated (Figure 18).
Fibroblasts were seeded in 24-well plates at a cell density of 4 × 10^5 cells/mL. The plates were incubated for 24 h under the same conditions described before until a confluent cell monolayer was obtained. […] The cells were incubated at 37 °C for 48 h. The plates were photographed under an inverted microscope (Nikon TMS, Nikon Instruments, Tokyo, Japan) at 4× magnification (immediately after exposure to the complexes (0 h), 24, and 48 h following exposure).

[3] = molecular target: T1, bovine serum albumin (BSA) (Bos taurus, UniProt P02769); assay: Interaction with bovine serum albumin (UV-vis, fluorescence); assay type: binding; conditions: 24 h, 37 °C; for BSA UV-Visible absorbance change: BSA 20 µM, complexes 10, 25 and 50 µM; for BSA fluorescence quenching: BSA 20 μM, complexes 10-100 µM, excitation 278 nm
T1 construct: composed of single polypeptide chains with 583 amino
T1 sequence (P02769 25-607): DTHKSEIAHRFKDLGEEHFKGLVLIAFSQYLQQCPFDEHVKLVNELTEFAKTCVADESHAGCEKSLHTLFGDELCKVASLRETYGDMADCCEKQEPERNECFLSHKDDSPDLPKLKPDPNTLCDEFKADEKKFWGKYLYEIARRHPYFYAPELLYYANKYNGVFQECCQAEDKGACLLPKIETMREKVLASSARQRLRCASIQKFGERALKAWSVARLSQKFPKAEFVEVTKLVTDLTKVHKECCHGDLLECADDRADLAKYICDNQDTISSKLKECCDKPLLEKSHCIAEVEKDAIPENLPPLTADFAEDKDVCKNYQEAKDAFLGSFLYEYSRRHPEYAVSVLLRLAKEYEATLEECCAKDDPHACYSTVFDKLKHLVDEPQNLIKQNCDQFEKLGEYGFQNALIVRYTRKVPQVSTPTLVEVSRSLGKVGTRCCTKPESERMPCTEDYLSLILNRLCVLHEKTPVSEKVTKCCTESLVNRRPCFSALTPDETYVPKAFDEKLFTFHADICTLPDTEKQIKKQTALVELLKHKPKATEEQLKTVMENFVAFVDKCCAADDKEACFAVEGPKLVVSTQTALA
Experimental: All solutions used to perform the BSA interaction assays were diluted in filtered buffer (10 mM phosphate buffer and 150 mM NaCl) pH 7.0, with BSA at a fixed final concentration of 20 μM and the concentrations of the complexes varying from 10 to 100 μM. Control solutions were also prepared, namely, a solution containing only BSA, a solution consisting of BSA + DMSO, and a solution consisting of DMSO only. Solutions were analyzed after 24 h of incubation at 37 °C. UV–visible absorption spectra were acquired using the Evolution 300 UV–vis (Thermo Fisher Scientific, Waltham, MA, USA) in the wavelength range between 245 and 500 nm in quartz cuvettes. The fluorescence of the samples mentioned was analyzed using a Cary Eclipse fluorimeter (VARIAN, California, USA). The BSA molecule was excited at 278 nm (maximum absorption peak), and emission was recorded between 290 and 500 nm. The setup was set at a slow speed (120 nm/min) using 5 nm slits. The absorbance value of the buffer containing DMSO (at the respective percentages) was subtracted from that of each sample.
12. Interaction with Bovine Serum Albumin (BSA)
In the perspective of translating the complexes into clinical practice and considering their administration and distribution in the human body, it is essential to examine their potential interaction with albumin, a protein present in human plasma at high concentrations. In this regard, bovine serum albumin (BSA) was utilized as a model. BSA is the most abundant plasma protein in vertebrates, sharing approximately 76% similarity with human serum albumin (HSA) and composed of single polypeptide chains with 583 amino […]
UV-Visible spectroscopy is an effective method for predicting conformational changes in proteins when interacting with small molecules such as drugs. The interaction of BSA […]
spectroscopy, considering the intrinsic fluorescence of tryptophan residues in BSA. Figure […]
DMSO and BSA in the presence of increasing concentrations of the metallic complexes.
(1 picture or pasted object on this page, not shown here)

With `COc1cccc2c1C(=O)c1c(O)c3c(c(O)c1C2=O)C[C@@](O)(C(=O)CO)C[C@@H]3O[C@H]1C[C@H](N)[C@H](O)[C@H](C)O1` [Doxorubicin] as the molecule, how does the IC50 ([1]; Homo sapiens) read?
Its IC50 is greater than 6000 nM.

What about the “percentage of remission/regeneration of the wound” value [2] of the same molecule?
The value was 68%.

`[Cl][Cu-3]12([Cl])[n+]3ccccc3-c3cc(-c4cccc5ccccc45)cc([n+]31)-c1cccc[n+]12` [Cu1a] was tested. Which “BSA UV-Visible absorbance change” value [3] did it give?
Its value is “hypochromism”.

What about the BSA fluorescence quenching [3] of the same molecule?
Its BSA fluorescence quenching is “attenuation of BSA fluorescence was observed”.

What about the IC50 [1] of the same molecule?
Its IC50 is 240 ± 20 nM.

What about the “SI HCT116-DoxR” value [1] of the same molecule?
Its value is 38.6.

And the “percentage of remission/regeneration of the wound” value [2]?
Its value is “approximately 66%”.

For `[Cl][Cu-3]12([Cl])[n+]3ccccc3-c3cc(-c4ccc5ccccc5c4)cc([n+]31)-c1cccc[n+]12` [Cu1b], which “BSA UV-Visible absorbance change” value [3] is on record?
The value was “hypochromism”.

What about the BSA fluorescence quenching [3] of the same molecule?
The BSA fluorescence quenching was “an increased quenching effect was observed”.

What about the IC50 [1] of the same molecule?
Its IC50 is 290 ± 20 nM.

What about the “SI HCT116-DoxR” value [1] of the same molecule?
The value was 45.9.

What about the “percentage of remission/regeneration of the wound” value [2] of the same molecule?
Its value is 69%.
